Marks after values point to notes of the source that are not given here.
What was measured:
[1] = tested on: isolated heart of the rat; experiment: Effects in the electrical activity (ECG) in isolated heart of the rat (Langendorff modified); conditions: for cardiac toxicity (cardiotoxicity) in relation to ropivacaine: conclusion from isolated rat heart
Text: In the experiments “in vitro”, adult male Wistar rats were used, weighing from 200 up to 350 g. The animals were slaughtered under anesthesia with ethyl ether. Thereafter, the heart was quickly removed and immersed, at room temperature, on Tyrode solution, composed in mM: NaCl, 120; KCl, 5.4; MgCl2, 1.2; CaCl2, 1.25; NaH2PO4, 2.0; NaHCO3, 27; Glucose, 11. The pH of this solution was adjusted to 7.4±0.02, under bubbling with carbogenic mixture (95% of O2 and 5% of CO2).
The heart was fixed, through the aorta, to a metallic tube and the latter was connected to a peristaltic pump (Milan^R). In order to maintain the feasibility of the preparation, the heart was perfused with a Tyrode solution at a flow of 8 ml.min^−1 maintained at 37° C. The drugs tested were diluted in the perfusion solution in the desired concentration. Thereafter, the heart was immersed in a recipient containing 150 ml of Tyrode solution maintained at 37° C. For registration of the ECG, three pipettes (electrodes), filled in with KCl 1M were positioned inside the chamber, the nearest possible to the heart. The electrical signals generated by the heart were amplified (Amplifier type 3A9) and registered in polygraph (Gould Brush mod.2400). After stabilization of the preparation, the experimental protocol with the infusion of ALs in crescent concentrations (0.1 a 10 μM), at intervals of 5 minutes between them, was started. The heart was perfused during 5 minutes for each concentration. Only one drug was tested for each heart.
The ECG was continuously registered in the absence (control) and in the presence of drugs for analysis. After the infusion of the last concentration, the preparation was washed during 30 minutes with the Tyrode solution without the AL, aiming to evaluate the reversibility of the effect of the drug.

[2] = tested on: Muscular Activity of the Gastrocnemic Muscle of the Rat; experiment: Study in motor nervous conduction: gastrocnemius muscle shocks induced by electrical stimulation of the sciatic nerve; format: in vivo; conditions: for IC50 (%) - concentration that inhibits 50% of the amplitude of muscular shocks: 0.1 ml applied to sciatic nerve, stimulation 0.2 Hz, anesthetized Wistar rats; for Power relative to S (−) ropivacaine: from IC50 of gastrocnemic muscle shocks
Experimental: Wistar male rats, weighing from 180 up to 250 g were under anesthesia with sodium pentobarbital (50 mg.kg^1) via i.p. After being submitted to tracheotomy and mechanically ventilated (Harvad Apparatus mod. 681), the animals were positioned on a surgical table (C. F. Palmer), on ventral decubital, and the four paws were fixed onto the surgical table. In the posterior face and near the back paw, the sciatic nerve was carefully dissected on both paws. A pair of platinum electrodes was fixed on the portion near the nerve and connected to a stimulator Grass mod.S88. Thereafter, the Achilles tendon was isolated and fixed to the isometric tension transducer (Grass FT03) by means of a metallic rod. […] 7). The body temperature was constant during the experiment. After stabilization of the preparation, the muscular shocks were registered in the absence (salty) and in the presence of increasing doses of LAs added in the proximity of the nerve. For each test, the anesthetic that socked the nerve was of 0.1 ml. The solutions were solved in physiologic serum at 0.9%, currently the experiment is maintained at 37° C. temperature.
Particularly, in this register, ropivacaine (S(−)ropi) and the non-racemic mixture (25R:75S) were administered in the perineural region. It should be noted the difference in the power and speed action between the anesthetic. In this figure, gastrocnemic shocks of the muscle were induced by electrical stimulation of the sciatic nerve. The segment of this nerve situated in the distal portion to the stimulation electrodes was soaked with 0.1 ml ropivacaine or with the non-racemic mixture of ropivacaine […] in the concentration of 0.06%. The reduction of the amplitude of the muscular shocks is a function of the number of nervous motor fibers under effective action of the anesthetics.
The concentration that inhibits 50% of the amplitude of muscular shocks (IC50) seeks is used for comparative purposes of the power between anesthetics.

[3] = spinal anesthesia; Gautier et al. 1999; cited from earlier work
[4] = 0.1 to 10 μM, 6 experiments, FIG. 4

SMILES	effect on PR interval ([1]; even in the concentration of 10 μM)	IC50 (%) - concentration that inhibits 50% of the amplitude of muscular shocks [2]	Power relative to S (−) ropivacaine [2]	less potent than racemic bupivacaine [3]	effect on CF (cardiac frequency) [1, 4]	effect on PR interval [1, 4]	cardiac toxicity (cardiotoxicity) in relation to ropivacaine [1]	effect on ECG of isolated heart ([1]; perfusion with 1 μM)	power (motor blocking) greater in comparison with ropivacaine ([2]; motor blocking, versus pure ropivacaine)
CCCN1CCCC[C@H]1C(=O)Nc1c(C)cccc1C [S (−) Ropi, (S)-N-(2,6-dimethylphenyl)-1-propyl-2-piperidinocarboxamide]	do not alter the PR interval	0.070%	1.0	about 50%					
CCCN1CCCC[C@@H]1C(=O)Nc1c(C)cccc1C [R (+) Ropi, (R)-N-(2,6-dimethylphenyl)-1-propyl-2-piperidinocarboxamide]		0.043* %	1.63*		greater depressors effect of CF	increase in PR interval	significantly higher cardiotoxicity	important blocking of the cardiac vessel	
CCCN1CCCCC1C(=O)Nc1c(C)cccc1C (racemic) [RS (±) Ropi, (R,S)-N-(2,6-dimethylphenyl)-1-propyl-2-piperidinocarboxamide]		0.036* %	1.94*		greater depressors effect of CF	increase in PR interval	significantly higher cardiotoxicity		~90%

Source: patent US7495105B2, “Non-racemic mixtures of (S) and (R) enantiomers of N-(2,6-dimethylphenyl)-1-propyl-2-piperidinocarboxamide; related processes and pharmaceutical compositions” (Cristalia Produtos Quimicos Farmaceuticos Ltda., priority 2001, dated 2009)
